Reference: patent US10836742B2, “N-substituted bicyclic lactams, their preparation and their use as pharmaceuticals” (NEOMED Institute, priority 2015, dated 2020)

Tests used:
BRD4(BD1) = BRD4(BD1) (Homo sapiens (Human), UniProt O60885); assay: In vitro bromodomain inhibition assay (AlphaLISA, H4-tetraacetyl peptide); format: binding; settings: His-tagged BRD4 BD1 200 nM, biotinylated H4-tetraacetyl peptide 200 nM
Experimental: a) In vitro Bromodomain Inhibition Assay
To measure activity of bromodomain inhibitors, a His-epitope tagged BRD4 BD149-170 is purchased from BPS Bioscience. BRD4 binding and inhibition is assessed by monitoring the engagement of biotinylated H4-tetraacetyl peptide (H4K5/8/12/16; AnaSpec #64989-025) with the target using the AlphaLISA technology (Perkin-Elmer). Specifically, in a 384 well OptiPlate, BRD4(BD1) (200 nM final) is pre-incubated with either DMSO (final 1.0% DMSO) or a compound dilution series in DMSO. All reagents are diluted in assay buffer containing 50 mM HEPES (pH 7.4), 100 mM NaCl, 0.1% (w/v) BSA, and 0.05% (w/v) CHAPS. After a 30 minute incubation at room temperature, H4 peptide is added (200 nM final) and the reaction is incubated an additional 30 minutes at room temperature. Alpha streptavidin donor beads and AlphaLISA nickel chelate acceptor beads are then added to a final concentration of 10 μg/mL each. After one hour, equilibration plates are read on an Envision instrument and IC50s calculated using a four parameter non-linear curve fit (results are shown in Table 2).

[1] = test system: human C-Myc gene transcription in MV-4-11 cells; assay: Transcription of human C-Myc in human leukemic MV-4-11 cells (QuantiGene 2.0); format: cell-based; settings: inhibition of C-Myc mRNA transcription, 4 hours treatment
Experimental: b) Transcription of Human C-Myc in Human Leukemic MV-4-11 Cells:
The effect of compounds on transcription of human C-Myc gene is monitored in human B-myelomonocytic leukemia cell line MV-4-11 (from American Type Culture Collection (ATCC), Manassas, Va., USA) using QuantiGene 2.0 assay kit (Affymetrix, Santa Clara, Calif., USA).
Typically, 8,000 MV-4-11 cells are plated in sterile 96-well plates (Costar #3598 from Fisher Scientific Canada, Ottawa, Ontario, Canada) in Iscove's medium supplemented with 10% fetal bovine serum, glutamine (2 mM), and penicillin (100 I.U.) and streptomycin (100 μg/mL) (all from Wisent Inc., St. Bruno, Quebec, Canada). Compounds are dissolved in DMSO at 30 mM. A series of 1:3 dilutions are first made in DMSO, and further 1:100 dilutions are made in serum-containing cell culture media. The final concentration of DMSO is 0.1% in cell culture media. After cells are treated with various concentrations of test compound for 4 hours, cells are lysed using Quantigene 2.0 sample processing kit (#QS0100). C-Myc mRNA is detected using a QuantiGene 2.0 assay kit (#QS0009) with gene-specific probe to human C-Myc (#SA-50182) following the manufacturer's recommendations. Luminescene signals are read on Flexstation II microplate reader (Molecular Devices, Sunnyvale, Calif., USA).

| Compound | IC50 (BRD4(BD1)) [nM] | IC50 [1] [nM] | IC50 ([1]; Homo sapiens, MV4-11, 4 h) [nM] |
| --- | --- | --- | --- |
| Cc1cc(-c2ccc3c(c2)N(C(C)c2ccccc2)C(=O)CC3)cn(C)c1=O (single isomer, unassigned) [Compound 12, 7-(1,5-dimethyl-6-oxo-3-pyridyl)-1-(1-phenylethyl)-3,4-dihydroquinolin-2-one] | 910 | 900 | – |
| Cc1cc(-c2ccc3c(c2)N(CC2CCCCO2)C(=O)CC3)cn(C)c1=O (single isomer, unassigned) [Compound 14, 7-(1,5-dimethyl-6-oxo-3-pyridyl)-1-(tetrahydropyran-2-ylmethyl)-3,4-dihydroquinolin-2-one] | 3670 | – | 590 |
| COc1cc2c(cc1-c1cc(C)c(=O)n(C)c1)CCC(=O)N2C(C)c1ccccn1 (stereo not shown) [Compound 3, 6-(1,5-dimethyl-6-oxo-3-pyridyl)-7-methoxy-1-[1-(2-pyridyl)ethyl]-3,4-dihydroquinolin-2-one] | – | – | 900 |
| Cc1cc(-c2ccc3c(c2)CCC(=O)N3Cc2ccccc2)cn(C)c1=O [Compound 5, 1-benzyl-6-(1,5-dimethyl-6-oxo-3-pyridyl)-3,4-dihydroquinolin-2-one] | – | – | 840 |
| COc1cc(-c2cc(C)c(=O)n(C)c2)cc2c1N(Cc1ccccc1)C(=O)CC2 [Compound 6, 1-benzyl-6-(1,5-dimethyl-6-oxo-1,6-dihydropyridin-3-yl)-8-methoxy-3,4-dihydroquinolin-2(1H)-one] | 2580 | – | 780 |
| Cc1cc(-c2ccc3c(c2)N(Cc2ccccc2)C(=O)CC3)cn(C)c1=O [Compound 7, 1-benzyl-7-(1,5-dimethyl-6-oxo-3-pyridyl)-3,4-dihydroquinolin-2-one] | 740 | – | 260 |
| Cc1cc(-c2ccc3c(c2)N(CCOC(F)(F)F)C(=O)CC3)cn(C)c1=O [Compound 8, 7-(1,5-dimethyl-6-oxo-3-pyridyl)-1-[2-(trifluoromethoxy)ethyl]-3,4-dihydroquinolin-2-one] | 940 | – | 820 |
| Cc1cc(-c2ccc3c(c2)N(Cc2ccc(F)cc2)C(=O)CC3)cn(C)c1=O [Compound 9, 7-(1,5-dimethyl-6-oxo-3-pyridyl)-1-[(4-fluorophenyl)methyl]-3,4-dihydro-quinolin-2-one] | 700 | – | 570 |
| Cc1cc(-c2ccc3c(c2)N(CC2CC(F)(F)C2)C(=O)CC3)cn(C)c1=O [Compound 11, 1-[(3,3-difluorocyclobutyl)methyl]-7-(1,5-dimethyl-6-oxo-3-pyridyl)-3,4-di hydroquinolin-2-one] | 860 | – | 870 |
| Cc1cc(-c2ccc3c(c2)OCC(=O)N3Cc2ccccc2)cn(C)c1=O [Compound 16, 4-benzyl-7-(1,5-dimethyl-6-oxo-3-pyridyl)-1,4-benzoxazin-3-one] | 1580 | – | 600 |
| Cc1cc(-c2ccc3c(c2)N(CC2CC(F)(F)C2)C(=O)CO3)cn(C)c1=O [Compound 19, 4-[(3,3-difluorocyclobutyl)methyl]-6-(1,5-dimethyl-6-oxo-3-pyridyl)-1,4-benzoxazin-3-one] | 810 | – | 750 |
| Cc1cc(-c2cc(Cl)c3c(c2)CCC(=O)N3Cc2ccccc2)cn(C)c1=O [Compound 22, 1-benzyl-8-chloro-6-(1,5-dimethyl-6-oxo-1,6-dihydropyridin-3-yl)-3,4-dihydroquinolin-2(1H)-one] | – | – | 840 |

Now from value to molecule:

| IC50 (BRD4(BD1)) [nM] | IC50 [1] [nM] | IC50 ([1]; Homo sapiens, MV4-11, 4 h) [nM] | Compound |
| --- | --- | --- | --- |
| 320 | 160 | – | Cc1cc(-c2ccc3c(c2)N(C(C)c2ccccc2)C(=O)CC3)cn(C)c1=O (single isomer, unassigned) [Compound 13, 7-(1,5-dimethyl-6-oxo-3-pyridyl)-1-(1-phenylethyl)-3,4-dihydroquinolin-2-one] |
| 1530 | 600 | – | Cc1cc(-c2ccc3c(c2)N(CC2CCCCO2)C(=O)CC3)cn(C)c1=O (single isomer, unassigned) [Compound 15, 7-(1,5-dimethyl-6-oxo-3-pyridyl)-1-(tetrahydropyran-2-ylmethyl)-3,4-dihydroquinolin-2-one] |
| – | – | 550 | COc1cc2c(cc1-c1cc(C)c(=O)n(C)c1)CCC(=O)N2C(C)c1ccccc1 (stereo not shown) [Compound 1, 6-(1,5-dimethyl-6-oxo-3-pyridyl)-7-methoxy-1-(1-phenylethyl)-3,4-dihydroquinolin-2-one] |
| – | 830 | – | COc1cc2c(cc1-c1cc(C)c(=O)n(C)c1)CCC(=O)N2C(C)c1ccccc1 (stereo not shown) [Compound 2, 6-(1,5-dimethyl-6-oxo-3-pyridyl)-7-methoxy-1-(1-phenylethyl)-3,4-dihydroquinolin-2-one] |
| – | 830 | – | COc1cc2c(cc1-c1cc(C)c(=O)n(C)c1)CCC(=O)N2C(C)c1ccccn1 (stereo not shown) [Compound 4, 6-(1,5-dimethyl-6-oxo-3-pyridyl)-7-methoxy-1-[1-(2-pyridyl)ethyl]-3,4-dihydroquinolin-2-one] |
| 420 | – | 540 | Cc1cc(-c2ccc3c(c2)N(Cc2ccccn2)C(=O)CC3)cn(C)c1=O [Compound 10, 7-(1,5-dimethyl-6-oxo-3-pyridyl)-1-(2-pyridylmethyl)-3,4-dihydroquinolin-2-one] |
| 460 | – | 96 | Cc1cc(-c2ccc3c(c2)N(Cc2ccccc2)C(=O)CO3)cn(C)c1=O [Compound 17, 4-benzyl-6-(1,5-dimethyl-6-oxo-3-pyridyl)-1,4-benzoxazin-3-one] |
| 580 | – | 860 | Cc1cc(-c2ccc3c(c2)N(Cc2ccccn2)C(=O)CO3)cn(C)c1=O [Compound 18, 6-(1,5-dimethyl-6-oxo-3-pyridyl)-4-(2-pyridylmethyl)-1,4-benzoxazin-3-one] |
| 880 | – | 500 | Cc1cc(-c2ccc3c(c2)N(CCOC(F)(F)F)C(=O)CO3)cn(C)c1=O [Compound 20, 6-(1,5-dimethyl-6-oxo-3-pyridyl)-4-[2-(trifluoromethoxy)ethyl]-1,4-benzoxazin-3-one] |
| – | – | 810 | Cc1cc(-c2cc(C)c(=O)n(C)c2)cc2c1N(Cc1ccccc1)C(=O)CC2 [Compound 21, 1-Benzyl-6-(1,5-dimethyl-6-oxo-1,6-dihydropyridin-3-yl)-8-methyl-3,4-dihydroquinolin-2(1H)-one] |
